Results published in patent USRE37886E1, “1-(1,2-Disubstituted piperidinyl)-4-substituted piperazine derivatives” (Janssen Pharmaceuticals, N.V., priority 1995, dated 2002).
Each block holds one compound with its values, some of them ahead of it.

Legend:
[1] = tested on: substance-P induced relaxation of the pig coronary arteries; assay: Antagonism of substance-P induced relaxation of the pig coronary arteries; format: cell-based; conditions: concentration at which 50% of the response to 10^−9 M substance P was inhibited, 30 minutes incubation, prostaglandin F2a precontracted segments
Text: (§1) The compounds of the present invention are potent inhibitors of neurokinin-mediated effects, in particular those mediated via the NK1 receptor, and may therefore be described as tachykinin antagonists, especially as substance P antagonists, as indicated in vitro by the antagonism of substance P induced relaxation of pig coronary arteries which is described hereinafter. The binding affinity of the present compounds for the human, guinea-pig and gerbil neurokinin receptors may be determined in vitro in a receptor binding test using ^3H-substance-P as radioligand. The subject compounds also show substance-P antagonistic activity in vivo as may be evidenced by, for instance, the antagonism of substance P-induced plasma extravasation in guinea-pigs, or the antagonism of drug-induced emesis in ferrets (Watson et al., Br. J. Pharmacol. 115, 84-94, 1995).
Antagonism of substance-P induced relaxation of the pig coronary arteries
Segments of coronary artieries taken from pigs (killed by injection of an overdose of sodium pentobarbital) were inverted and mounted for recordign of isometric tension in organ baths (volume 20 ml) with the endothelium at the outside. The preparations were bathed in Krebs-Henseleit solution. The solution was kept at 37° C. and gassed with a mixture of O2/CO2 (95/5). After stabilisation of the preparations, prostaglandin F2a (10^−5 M) was administered to induce a contraction. This was repeated until contractivle responses became stable. Then prostaglandin F2a was again administered and substance P(3×10^−10 M and 10^−9 M cumulatively) was added. Substance P induced endothelium dependent relaxations. After washing away the agonists, a known concentratin of a compound of formula (I) was added. After an incubation period of 30 minutes, prostaglandin F2a ([…]) and the same concentrations of sbustance P as described above were again administered in the presence of the compound to be tested. Relaxations caused by substance P were expressed as relaxations under control conditions, and percent inhibition of the response to […] substance P was taken as a measure of the antagonistic activity of the compound to be tested. Table 6 lists the IC50 values (concentration at which 50% of the response to […] substance P was inhibited by the test compound) for the tested compounds.

[2] = tested on: substance P induced plasma extravasation; assay: Antagonism of substance P induced plasma extravasation in guinea-pigs; format: in vivo; conditions: lowest active dose, female guinea-pigs; for LAD nose: compound 1 hour prior to substance P (2 mg/kg, femoral artery), blue colouring of nose 10 minutes after challenge; for LAD conjunctiva / LAD forepaws / LAD trachea / LAD urinary bladder: compound 1 hour prior to substance P; for LAD conjunctiva: blue colouring of conjunctiva 10 minutes after challenge; for LAD forepaws: blue colouring of forepaws 10 minutes after challenge; for LAD trachea: blue colouring of trachea 30 minutes after challenge; for LAD urinary bladder: blue colouring of urinary bladder 30 minutes after challenge
Text: as §1
Antagonism of substance P induced plasma extravasation in guinea-pigs
Plasma extravasation was induced by injection of substance P (2 mg/kg) in the femoral artery of female guinea-pigs. Evans Blue dye (30 mg/kg) was injected simultaneously. The test compound or solvent was administered 1 hour prior to substance P injection. 10 minutes after challenge, the aminals were checked for blue colouring (a direct measure for plasma extravasation) of the nose, the forepaws, and the conjectiva. 30 minutes after challenge, the animals were sacrificed by CO2 gas inhalation and checked for blue colouring of the trachea and the urinary bladder. […]

Compound: O=C(CN1CCN(C2CCN(C(=O)c3cc(C(F)(F)F)cc(C(F)(F)F)c3)C(Cc3ccccc3)C2)CC1)NC(c1ccccc1)c1ccccc1 (stereo not shown) [Compound 33]
- IC50 [1]: 0.6 nM
- LAD nose [2]: 2.50 mg/kg
- LAD conjunctiva [2]: 2.50 mg/kg
- LAD forepaws [2]: 10.0 mg/kg
- LAD trachea [2]: >40 mg/kg
- LAD urinary bladder [2]: >40 mg/kg

Compound: Cc1cccc(C)c1NC(=O)CN1CCN(C2CCN(C(=O)c3cc(C(F)(F)F)cc(C(F)(F)F)c3)C(Cc3ccccc3)C2)CC1 (stereo not shown) [Compound 53]
- IC50 [1]: 0.35 nM
- LAD nose [2]: 1.25 mg/kg
- LAD conjunctiva [2]: 1.25 mg/kg
- LAD forepaws [2]: 1.25 mg/kg
- LAD trachea [2]: 2.50 mg/kg
- LAD urinary bladder [2]: 2.50 mg/kg

Compound: COc1ccccc1NC(=O)CN1CCN(C2CCN(C(=O)c3cc(C(F)(F)F)cc(C(F)(F)F)c3)C(Cc3ccccc3)C2)CC1 (stereo not shown) [Compound 38]
- IC50 [1]: 0.86 nM
- LAD nose [2]: 10.0 mg/kg
- LAD conjunctiva [2]: 10.0 mg/kg
- LAD forepaws [2]: 10.0 mg/kg
- LAD trachea [2]: >40 mg/kg
- LAD urinary bladder [2]: >40 mg/kg

Compound: CCOCCn1c(CN2CCN(C3CCN(C(=O)c4cc(C(F)(F)F)cc(C(F)(F)F)c4)C(Cc4ccccc4)C3)CC2)nc2cccnc21 (racemic) [Compound 25]
- IC50 [1]: 0.79 nM
- LAD nose [2]: 2.50 mg/kg
- LAD conjunctiva [2]: 10.0 mg/kg
- LAD forepaws [2]: 2.50 mg/kg
- LAD trachea [2]: >40 mg/kg
- LAD urinary bladder [2]: >40 mg/kg

Compound: Cc1ncc(Cn2c(N3CCN(C4CCN(C(=O)c5cc(C(F)(F)F)cc(C(F)(F)F)c5)C(Cc5ccccc5)C4)CC3)nc3ccccc32)o1 (racemic) [Compound 85]
- IC50 [1]: 0.15 nM
- LAD nose [2]: 2.50 mg/kg
- LAD conjunctiva [2]: 2.50 mg/kg
- LAD forepaws [2]: 2.50 mg/kg
- LAD trachea [2]: 2.50 mg/kg
- LAD urinary bladder [2]: 10.0 mg/kg

Compound: Cc1cccc(C)c1NC(=O)CN1CCN([C@@H]2CCN(C(=O)c3cc(C(F)(F)F)cc(C(F)(F)F)c3)[C@@H](Cc3cc(F)cc(F)c3)C2)CC1 (racemic) [Compound 133, (±)-trans-4-[1-[3,5-bis(trifluoromethyl)benzoyl]-2-[(3,5-difluorophenyl)methyl]-4-piperdinyl]-N-(2,6-dimethylphenyl)-1-piperazineacetamide]
- IC50 [1]: 0.62 nM
- LAD nose [2]: 2.50 mg/kg
- LAD conjunctiva [2]: 2.50 mg/kg
- LAD forepaws [2]: 2.50 mg/kg
- LAD trachea [2]: 10.0 mg/kg
- LAD urinary bladder [2]: 10.0 mg/kg

Compound: Cc1cccc(C)c1NC(=O)CN1CCN([C@@H]2CCN(C(=O)c3cc(C(F)(F)F)cc(C(F)(F)F)c3)[C@@H](Cc3ccccc3)C2)CC1.O=C(O)/C=C/C(=O)O (relative stereo) [Compound 128, (B-trans)-4-[1-[3,5-bis(trifluoromethyl)benzoyl]-2-(phenylmethyl)-4-piperidinyl]-N-(2,6-dimethylphenyl)-1-piperazineacetamide (E)-2-butenedioate (1:1)]
- IC50 [1]: 0.35 nM
- LAD nose [2]: 0.63 mg/kg
- LAD conjunctiva [2]: 0.63 mg/kg
- LAD forepaws [2]: 0.63 mg/kg
- LAD trachea [2]: >40 mg/kg
- LAD urinary bladder [2]: 10.0 mg/kg

Compound: Cc1cccc(C)c1NC(=O)CN1CCN(C2CCN(C(=O)c3cc(C(F)(F)F)cc(C(F)(F)F)c3)C(Cc3ccc(F)c(F)c3)C2)CC1 (racemic) [Compound 135]
- IC50 [1]: 0.01 nM
- LAD nose [2]: 0.63 mg/kg
- LAD conjunctiva [2]: 0.63 mg/kg
- LAD forepaws [2]: 0.63 mg/kg
- LAD trachea [2]: 2.50 mg/kg
- LAD urinary bladder [2]: >40 mg/kg

Compound: Cc1cccc(C)c1NC(=O)CN1CCN(C2CCN(C(=O)c3cc(C(F)(F)F)cc(C(F)(F)F)c3)C(Cc3ccccc3)C2)CC1 (single isomer, unassigned) [Compound 42]
- IC50 [1]: 0.93 nM
- LAD nose [2]: 1.25 mg/kg
- LAD conjunctiva [2]: 2.50 mg/kg
- LAD forepaws [2]: 1.25 mg/kg
- LAD trachea [2]: 5.00 mg/kg
- LAD urinary bladder [2]: 5.00 mg/kg

Compound: CCOCCn1c(N2CCN(C3CCN(C(=O)c4cc(C(F)(F)F)cc(C(F)(F)F)c4)C(Cc4ccccc4)C3)CC2)nc2ccccc21 (stereo not shown) [Compound 22]
- IC50 [1]: 0.37 nM
- LAD nose [2]: 2.50 mg/kg
- LAD conjunctiva [2]: 2.50 mg/kg
- LAD forepaws [2]: 2.50 mg/kg
- LAD trachea [2]: 10.0 mg/kg
- LAD urinary bladder [2]: >40 mg/kg

Compound: (+)-(B)-trans-4-[1-[3,5-bis(trifluoromethyl)benzoyl]-2-(phenylmethyl)-4-piperidinyl]-N-(2,6-dimethylphenyl)-1- piperazine acetamide [Compound 27]
- IC50 [1]: 0.13 nM
- LAD nose [2]: 0.63 mg/kg
- LAD conjunctiva [2]: 0.63 mg/kg
- LAD forepaws [2]: 0.63 mg/kg
- LAD trachea [2]: 0.63 mg/kg
- LAD urinary bladder [2]: 0.63 mg/kg

- IC50 ([1]; Sus scrofa, 0.5 h): 0.13 nM
Compound: Cc1cccc(C)c1NC(=O)CN1CCN([C@@H]2CCN(C(=O)c3cc(C(F)(F)F)cc(C(F)(F)F)c3)[C@@H](Cc3ccc(Cl)c(Cl)c3)C2)CC1 (racemic) [Compound 139, (±)-trans-4-[1-[3,5-bis(trifluoromethyl)benzoyl]-2-[(3,4-dichlorophenyl)methyl]-4-piperidinyl]-N-(2,6-dimethylphenyl)-1-piperazineacetamide]
- LAD nose [2]: 2.50 mg/kg
- LAD conjunctiva [2]: 2.50 mg/kg
- LAD forepaws [2]: 2.50 mg/kg
- LAD trachea [2]: 2.50 mg/kg
- LAD urinary bladder [2]: 2.50 mg/kg

Compound: (−)-(A)-trans-4-[1-[3,5-bis(trifluoromethyl) benzoyl]-2-(phenylmethyl)-4-piperidinyl]-N-(2,6-dimethylphenyl)-1-piperazine acetamide [Compound 26]
- IC50 [1]: 2.75 nM
- LAD nose [2]: 10.0 mg/kg
- LAD conjunctiva [2]: 20.0 mg/kg
- LAD forepaws [2]: 10.0 mg/kg
- LAD trachea [2]: 40.0 mg/kg
- LAD urinary bladder [2]: 20.0 mg/kg

Compound: Cc1ncc(CN2CCN(C3CCN(C(=O)c4cc(C(F)(F)F)cc(C(F)(F)F)c4)C(Cc4ccccc4)C3)CC2)o1 (racemic) [Compound 119]
- IC50 [1]: 2.81 nM
- LAD nose [2]: 2.50 mg/kg
- LAD conjunctiva [2]: 2.50 mg/kg
- LAD forepaws [2]: 2.50 mg/kg
- LAD trachea [2]: 10.0 mg/kg
- LAD urinary bladder [2]: >40 mg/kg

Compound: Cc1ncc(Cn2c(N3CCCN(C4CCN(C(=O)c5cc(C(F)(F)F)cc(C(F)(F)F)c5)C(Cc5ccccc5)C4)CC3)nc3ccccc32)o1 (stereo not shown) [Compound 34]
- IC50 [1]: 0.35 nM
- LAD nose [2]: 2.50 mg/kg
- LAD conjunctiva [2]: 2.50 mg/kg
- LAD forepaws [2]: 10.0 mg/kg
- LAD trachea [2]: 10.0 mg/kg
- LAD urinary bladder [2]: 10.0 mg/kg

Compound: COc1ccccc1NC(=O)CN1CCN(C2CCN(C(=O)c3cc(C(F)(F)F)cc(C(F)(F)F)c3)C(Cc3ccccc3)C2)CC1 (stereo not shown) [Compound 51]
- IC50 [1]: 1.35 nM

Compound: O=C(c1cc(C(F)(F)F)cc(C(F)(F)F)c1)N1CCC(N2CCN(C(c3ccc(F)cc3)c3ccc(F)cc3)CC2)CC1Cc1ccccc1 (stereo not shown) [Compound 36]
- IC50 [1]: 2.31 nM

Compound: Cc1cccc(C)c1NC(=O)C(c1ccccc1)N1CCN(C2CCN(C(=O)c3cc(C(F)(F)F)cc(C(F)(F)F)c3)C(Cc3ccccc3)C2)CC1 (racemic) [Compound 102]
- IC50 [1]: 1.85 nM

Compound: Cc1cc(C)cc(C(=O)NCCN2CCN(C3CCN(C(=O)c4cc(C(F)(F)F)cc(C(F)(F)F)c4)C(Cc4ccccc4)C3)CC2)c1 (racemic) [Compound 115]
- IC50 [1]: 2.23 nM

Compound: Cc1cccc2c1N(C(=O)CN1CCN(C3CCN(C(=O)c4cc(C(F)(F)F)cc(C(F)(F)F)c4)C(Cc4ccccc4)C3)CC1)CC2 (racemic) [Compound 104]
- IC50 [1]: 0.3 nM

Compound: CCOCCn1c(NC(=O)CN2CCN(C3CCN(C(=O)c4cc(C(F)(F)F)cc(C(F)(F)F)c4)C(Cc4ccccc4)C3)CC2)nc2ccccc21 (racemic) [Compound 69]
- IC50 [1]: 1.57 nM

Compound: O=C(c1cc(C(F)(F)F)cc(C(F)(F)F)c1)N1CCC(N2CCN(C(c3ccccc3)c3ccccc3)CC2)CC1Cc1ccccc1 (stereo not shown) [Compound 55]
- IC50 [1]: 2.8 nM
